Where a chain is given by its changes, count along the chain named.
Tests used:
Assay in all cases: in vitro condensation assay, fluorescence microscopy of Ade4-mNG particles
Type in all cases: binding
[1] = target: T1, Ade4-mNG (yeast PPAT Ade4) (Saccharomyces cerevisiae, UniProt P04046); settings: inhibits self-assembly, 0.2 µM protein, 10% PEG8K
T1 construct: full length, C-terminal mNeonGreen and Strep-tag II kept; purified from budding yeast cells
T1 sequence (P04046 2-510): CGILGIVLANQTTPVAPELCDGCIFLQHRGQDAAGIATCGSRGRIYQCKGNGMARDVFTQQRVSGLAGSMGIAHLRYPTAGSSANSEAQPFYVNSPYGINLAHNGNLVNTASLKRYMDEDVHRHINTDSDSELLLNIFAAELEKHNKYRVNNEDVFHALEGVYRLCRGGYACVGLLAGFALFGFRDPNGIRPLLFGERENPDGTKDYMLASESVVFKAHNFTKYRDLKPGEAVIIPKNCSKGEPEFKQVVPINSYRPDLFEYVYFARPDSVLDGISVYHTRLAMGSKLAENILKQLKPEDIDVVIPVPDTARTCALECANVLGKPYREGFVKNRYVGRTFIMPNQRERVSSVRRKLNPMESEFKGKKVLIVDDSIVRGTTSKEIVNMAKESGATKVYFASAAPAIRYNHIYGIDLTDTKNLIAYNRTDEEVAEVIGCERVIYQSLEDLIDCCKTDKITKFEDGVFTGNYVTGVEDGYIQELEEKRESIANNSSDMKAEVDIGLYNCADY

Ade4∆IDR-mNG = target: T2, Ade4∆IDR-mNG (Saccharomyces cerevisiae, UniProt P04046); settings: inhibits self-assembly; 500 µM AMP, 0.2 µM protein, 10% PEG8K
T2 construct: C-terminal mNeonGreen and Strep-tag II kept; purified from budding yeast
T2 sequence (P04046 2-480 limits assumed): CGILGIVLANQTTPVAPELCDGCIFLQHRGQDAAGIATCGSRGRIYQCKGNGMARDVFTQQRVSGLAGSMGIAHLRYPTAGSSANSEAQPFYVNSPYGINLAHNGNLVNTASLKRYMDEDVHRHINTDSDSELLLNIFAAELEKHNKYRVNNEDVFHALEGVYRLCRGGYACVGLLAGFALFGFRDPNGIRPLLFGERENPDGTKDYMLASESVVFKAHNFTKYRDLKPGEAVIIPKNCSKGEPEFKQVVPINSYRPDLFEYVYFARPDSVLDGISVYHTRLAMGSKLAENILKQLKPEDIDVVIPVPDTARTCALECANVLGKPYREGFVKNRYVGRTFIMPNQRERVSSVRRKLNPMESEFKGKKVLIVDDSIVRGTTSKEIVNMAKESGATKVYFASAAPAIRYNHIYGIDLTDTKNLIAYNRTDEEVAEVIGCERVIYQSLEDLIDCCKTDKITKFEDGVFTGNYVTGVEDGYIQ

[2] = target: T3, Ade4-mNG (yeast PPAT Ade4) (Saccharomyces cerevisiae, UniProt P04046, D373A/D374A); settings: inhibits self-assembly, less than wild type; 1 mM AMP, 0.2 µM protein, 10% PEG8K
T3 construct: full length, C-terminal mNeonGreen and Strep-tag II kept; purified from budding yeast cells
T3 sequence (P04046 2-510 D373A/D374A): T1 sequence (P04046 2-510) with D372A, D373A

Nc1ncnc2c1ncn2[C@@H]1O[C@H](COP(=O)(O)OP(=O)(O)O)[C@@H](O)[C@H]1O [ADP]
in vitro condensation assay, fluorescence microscopy of Ade4-mNG particles ([1]; 5 mM MgCl2, pH 7.5): In the presence of GMP, AMP, ADP, and ATP, the condensation of Ade4-mNG was significantly reduced

Nc1ncnc2c1ncn2[C@@H]1O[C@H](COP(=O)(O)O)[C@@H](O)[C@H]1O [AMP]
in vitro condensation assay, fluorescence microscopy of Ade4-mNG particles ([1]; 5 mM MgCl2, pH 7.5, counteracted by PRPP): In the presence of GMP, AMP, ADP, and ATP, the condensation of Ade4-mNG was significantly reduced | in vitro condensation assay, fluorescence microscopy of Ade4-mNG particles (Ade4∆IDR-mNG): AMP also suppressed the condensation of Ade4∆IDR-mNG | in vitro condensation assay, fluorescence microscopy of Ade4-mNG particles [2]: AMP inhibited the assembly of Ade4-DA-mNG condensates, albeit less effectively than that of Ade4-mNG condensates

Nc1ncnc2c1ncn2[C@@H]1O[C@H](COP(=O)(O)OP(=O)(O)OP(=O)(O)O)[C@@H](O)[C@H]1O [ATP]
in vitro condensation assay, fluorescence microscopy of Ade4-mNG particles ([1]; 5 mM MgCl2, pH 7.5): In the presence of GMP, AMP, ADP, and ATP, the condensation of Ade4-mNG was significantly reduced

Nc1nc2c(ncn2[C@@H]2O[C@H](COP(=O)(O)O)[C@@H](O)[C@H]2O)c(=O)[nH]1 [GMP]
in vitro condensation assay, fluorescence microscopy of Ade4-mNG particles ([1]; 5 mM MgCl2, pH 7.5): In the presence of GMP, AMP, ADP, and ATP, the condensation of Ade4-mNG was significantly reduced

Nc1ncnc2c1ncn2[C@@H]1O[C@H](CSCC[C@H](N)C(=O)O)[C@@H](O)[C@H]1O [SAH]
in vitro condensation assay, fluorescence microscopy of Ade4-mNG particles ([1]; weaker than AMP, 500 µM SAH, 0.5% DMSO): exerted approximately one-third the inhibitory effect of AMP
